Test results from patent publication US10626113B2, “Phosphodiesterase inhibitors and uses thereof” (THE TRUSTEES OF COLUMBIA UNIVERSITY IN THE CITY OF NEW YORK, priority 2012, dated 2020).
Where two headings read alike, the source gives them in different places.

Experiments:
PDE5 = PDE5 (Homo sapiens (Human), UniProt O76074); test: PDE5 inhibition assay (BPS PDE assay kit, fluorescence polarization); format: biochemical; details: Table 1; 100 nM FAM-cGMP
Protocol: Materials and Methods: PDE5 inhibition was assayed at BPS Bioscience (San Diego, Calif.) using BPS PDE assay kits (BPS Catalog number 60300, enzyme lot 090810). Test compounds were supplied as liquid solutions of 10 mM concentration in DMSO. Sildenafil, used as a standard was dissolved in DMSO. Intermediate dilutions were 10% DMSO in PDE assay buffer and tests at ranges from 0.1 to 100 nM. 0.1 ng of enzyme was used per reaction, and the substrate was 100 nM FAM-cGMP.
Assay conditions: A series of dilutions of the test compounds were prepared with 10% DMSO in assay buffer and 5 μl of the dilution was added to a 50 μl reaction so that the final concentration of DMSO is 1% in all of reactions. The enzymatic reactions were conducted at room temperature for 60 minutes in a 50 μl mixture containing PDE assay buffer, 100 nM FAM-cAMP or 100 nM FAM-cGMP, a PDE enzyme, and the test compound. After the enzymatic reaction, 100 μl of a binding solution (1:100 dilution of the binding agent with the binding agent diluent) was added to each reaction and the reaction was performed at room temperature for 60 minutes. Fluorescence intensity was measured at an excitation of 485 nm and an emission of 528 nm using a Tecan Infinite M1000 microplate reader.
Data analysis: PDE activity assays were performed in duplicate at each concentration. Fluorescence intensity is converted to fluorescence polarization using the Tecan Magellan6 software. The fluorescence polarization data were analyzed using the computer software, Graphpad Prism. The fluorescence polarization (FPt) in absence of the compound in each data set was defined as 100% activity. In the absence of PDE and the compound, the value of fluorescent polarization (FPb) in each data set was defined as 0% activity. The percent activity in the presence of the compound was calculated according to the following equation: % activity=(FP−FPb)/(FPt−FPb)×100%, where FP=the fluorescence polarization in the presence of the compound.
The values of % activity versus a series of compound concentrations were then plotted using non-linear regression analysis of Sigmoidal dose-response curve generated with the equation Y=B+(T−B)/1+10^((LogEC50-X)×Hill Slope), where Y=percent activity, B=minimum percent activity, T=maximum percent activity, X=logarithm of compound and Hill Slope=slope factor or Hill coefficient. The IC50 value was determined by the concentration causing a half-maximal percent activity.

APP/PS1 mice = test: Contextual fear conditioning (fear memory); format: in vivo; details: 3 mg/kg i.p. for 3 weeks
Protocol: Fear conditioning was assessed as described in B. Gong, O. V. Vitolo, F. Trinchese, S. Liu, M. Shelanski, O. Arancio, Persistent improvement in synaptic and cognitive functions in an Alzheimer mouse model after rolipram treatment, J. Clin. Invest. 114 (2004) 1624-1634; F. Trinchese, S. Liu, F. Battaglia, S. Walter, P. M. Mathews, O. Arancio, Progressive age-related development of Alzheimer-like pathology in APP/PS1 mice, Ann. Neurol. 55 (2004) 801-814; and B. Gong, Z. Cao, P. Zheng, O. V. Vitolo, S. Liu, A. Staniszewski, D. Moolman, H. Zhang, M. Shelanski, O. Arancio, Ubiquitin hydrolase Uch-L1 rescues beta-amyloid-induced decreases in synaptic function and contextual memory, Cell 126 (2006) 775-788; each herein incorporated by reference in its entirety. […] Freezing behavior, defined as the absence of movements except for respiratory excursions, was scored using Freezeview software (Med Associates, St. Albans, Vt.). Contextual fear learning was evaluated 24 hrs after training by measuring freezing responses for 5 min in the same chamber where the mice were trained. Cued fear learning was evaluated 24 hrs after contextual testing. The mice were placed in a novel context for 2 min (pre-CS test), after which they were given a CS for 3 min (CS test), and freezing behavior was measured during the first 30 sec that mimic the CS-US conditioning and the remaining 2.5 min. […]

[1] = Pharmacokinetic study in mice; format: in vivo; details: 25 mg/kg i.p.
[2] = Acute toxicity study with histology; format: in vivo; details: 120 or 240 mg/kg, i.p.
Text: Brain, muscle, kidney, and liver were harvested from each mouse, and tissue from each organ was examined histologically by a board-certified pathologist for signs of toxicity.

SMILES: COc1ccc(CNc2c3c(nc4ccc(C#N)cc24)CCN(C(C)=O)C3)cc1Cl [Compound H, 2-acetyl-10-[(3-chloro-4-methoxybenzyl)amino]-1,2,3,4-tetrahydrobenzo[b][1,6]naphthyridine-8-carbonitrile]
- IC50 (PDE5): 0.056 nM
- effect on contextual fear memory of WT mice (APP/PS1 mice): no effect
- Cmax, brain ([1]; male C57Bl6 mice): 492.25 ng/g
- Tmax, brain ([1]; male C57Bl6 mice): 15 min
- Tmax, plasma ([1]; male C57Bl6 mice): 15 min
- t1/2 elimination half-life, brain ([1]; male C57Bl6 mice): 39 min
- t1/2 elimination half-life, plasma ([1]; male C57Bl6 mice): 64.2 min
- brain/plasma Cmax ratio ([1]; male, C57Bl6, mouse, brain/plasma, ip, 25 mg/kg): 0.31
- MRT ([1]; mouse, brain, ip, male C57Bl6 mice, read-out: MRT Mean Residence Time, brain): 57 min
- Cmax ([1]; mouse, plasma, ip, male C57Bl6 mice): 1570 ng/mL
- MRT ([1]; mouse, plasma, ip, male C57Bl6 mice, read-out: MRT Mean Residence Time, plasma): 93.6 min
- brain sections, CD45 immunostain [2]: no signs of inflammation
- brain sections, GFAP immunostain [2]: no signs of gliosis
- brain sections, H&E [2]: did not show any signs of toxicity
- brain sections, LFB-PAS stain [2]: no signs of demyelination
- kidney sections, H&E [2]: no toxicity
- kidney sections, PAS stain [2]: did not show any abnormalities in the glomerular basement membrane
- kidney sections, trichrome stain [2]: no fibrosis
- liver sections, H&E [2]: did not show any signs of toxicity
- liver sections, trichrome stain [2]: no fibrosis or cirrhotic liver disease
- muscle sections, H&E [2]: no signs of toxicity
- muscle sections, trichrome stain [2]: no muscle fibrosis
